Results taken from PubChem BioAssay (NCI).
“And” between values parts separate entries of the source, which are not always exact repeats. Equal entries are not always repeated.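 Following 48 hours of exposure in 96-well plates, responses at five concentrations were used to interpolate endpoints linearly. The concentration for 50% growth inhibition is given as GI50. TGI is the concentration that stops growth completely.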

Experiments:
Assay in all cases: NCI-60 cell line screen, 48 h
CCRF-CEM leukemia = test system: CCRF-CEM leukemia
EKVX NSCLC = test system: EKVX NSCLC
HCT-116 colon = test system: HCT-116 colon
HOP-92 NSCLC = test system: HOP-92 NSCLC
HT29 colon = test system: HT29 colon
MALME-3M melanoma = test system: MALME-3M melanoma
OVCAR-5 ovarian = test system: OVCAR-5 ovarian
SR leukemia = test system: SR leukemia
SW-620 colon = test system: SW-620 colon
UO-31 renal = test system: UO-31 renal

| Structure (SMILES) | GI50 (CCRF-CEM leukemia) [µM] | TGI (CCRF-CEM leukemia) | GI50 (EKVX NSCLC) [µM] | TGI (EKVX NSCLC) | GI50 (HCT-116 colon) [µM] | TGI (HCT-116 colon) | GI50 (HOP-92 NSCLC) [µM] | TGI (HOP-92 NSCLC) | GI50 (HT29 colon) [µM] | TGI (HT29 colon) | GI50 (MALME-3M melanoma) [µM] | TGI (MALME-3M melanoma) | GI50 (OVCAR-5 ovarian) [µM] | TGI (OVCAR-5 ovarian) | GI50 (SR leukemia) [µM] | TGI (SR leukemia) [µM] | GI50 (SW-620 colon) [µM] | TGI (SW-620 colon) | GI50 (UO-31 renal) [µM] | TGI (UO-31 renal) [µM] |
| --- | --- | --- | --- | --- | --- | --- | --- | --- | --- | --- | --- | --- | --- | --- | --- | --- | --- | --- | --- | --- |
| Cn1cc(-c2ccc3c(c2)ncn3-c2ccc(CC(=O)Nc3cc(C(C)(C)C)on3)cc2)cn1 | 3.23 | > 100 µM | 1.75 | 31.1 µM | 1.89 | 7.43 µM | 0.227 | 1.42 µM | 2.6 | > 36.7 µM | 1.29 | 12.6 µM | 1.35 | > 27.2 µM | 1.69 | 8.49 | 2.44 | > 100 µM | 0.224 | 2.2 |
| C/C(=N\NC(=S)Nc1ccccc1)c1ccccn1 | < 0.01 | > 100 µM | 0.0691 | 7.38 µM | < 0.01 | 1.17 µM | < 0.0162 | 0.607 µM | 0.0203 | 2.54 µM | 0.121 | 5.39 µM | 0.118 | 10.9 µM | 0.0703 | 11.3 | 0.0242 | 2.94 µM | 0.0565 | 2.75 |
| COc1ccc(C2=NN(c3ccc(S(N)(=O)=O)cc3)C(c3ccc(Cl)cc3)C2)c(O)c1 (stereo not drawn) | 2.39 | 6.92 µM | 2.71 | 10.5 µM | 2.32 | 8.63 µM | 2.97 | 15.6 µM | 2.83 | 8.68 µM | 4.03 | 16.7 µM | 9.44 | 29.3 µM | 0.897 | 3.61 | 3.68 | 14.8 µM | 1.97 | 13.5 |
| O=C(NCCS(=O)(=O)N1C(=O)C2CCCN2C(=O)[C@@H]1Cc1ccccc1)OCc1ccccc1 (stereo partly drawn) | – | > 100 µM | – | > 100 µM | – | > 100 µM | – | > 100 µM | – | > 100 µM | – | > 100 µM | – | > 100 µM | – | > 100 | – | > 100 µM | – | > 100 |
| O=[N+]([O-])c1ccc([I+]c2ccccc2)cc1 | 3.21 | > 100 µM and 10.9 µM | 1.5 | 32 µM and 3.32 µM | 1.83 | 17.5 µM and 3.8 µM | – | 23.5 µM and 25.1 µM | 2.08 | 8.33 µM and 5.08 µM | 1.31 | 11.2 µM and 3.54 µM | 1.78 | 17 µM and 3.34 µM | – | > 47.8 | 1.85 | 12.2 µM and 4.31 µM | – | 11.9 |
| CCN1C(=O)N(CC)C2C1NN=c1s/c(=C\c3ccc([N+](=O)[O-])cc3)c(=O)n12 (stereo not drawn) | 0.411 | > 46.7 µM | 0.893 | > 100 µM | 0.427 | > 100 µM | 2.19 | > 100 µM | 0.375 | > 100 µM | 0.587 | > 100 µM | 1.22 | > 91.1 µM | 0.385 | > 66.4 | 0.379 | > 100 µM | 0.903 | > 100 |
| Cc1ccc2c(c1)/C(=N\N=C/c1cn(C(C)C)c3ccccc13)C(=O)N2 | 0.367 | > 100 µM | 22 | > 100 µM | 1.09 | > 100 µM | 1.73 | 67.2 µM | 2.82 | > 100 µM | 1.38 | 9.81 µM | 35.1 | > 100 µM | 0.261 | > 100 | 0.937 | > 100 µM | 1.98 | > 100 |
| O=C(O)Cc1ccccc1 | > 1000 | > 2000 µM | > 1000 | > 2000 µM | > 1000 | > 1000 µM | > 1000 | > 1000 µM and 1250 µM | – | > 2000 µM | > 1000 | > 1000 µM and 1970 µM | > 1000 | > 2000 µM | – | > 1000 | > 1000 | > 2000 µM | – | > 2000 |
| Cc1cc(N(CCC#N)CCC#N)ccc1N=Nc1ccc([N+](=O)[O-])cc1 | – | > 100 µM | – | > 100 µM | – | 31.6 µM | – | > 100 µM | – | > 100 µM | – | > 100 µM | – | > 100 µM | – | > 100 | – | > 10 µM | – | > 100 |
| COc1cc(-c2[nH]ncc2CCCC(=O)Nc2ccccc2[N+](=O)[O-])ccc1O | – | > 100 µM | – | > 100 µM | – | > 100 µM | – | > 100 µM | – | > 100 µM | – | 48.9 µM | – | > 100 µM | – | > 100 | – | > 100 µM | – | > 100 |
| CC1(C)CCC(CN2CCN(c3ccc(C(=O)NS(=O)(=O)c4ccc(NCC5CCOCC5)c([N+](=O)[O-])c4)c(Oc4cnc5[nH]ccc5c4)c3)CC2)=C(c2ccc(Cl)cc2)C1 | 2.32 | 7.29 µM | – | – | 3.36 | 11.8 µM | 1.29 | 2.77 µM | 2.49 | 6.45 µM | 1.82 | 3.64 µM | 3.19 | 11.6 µM | 3.21 | 13 | 3.95 | 16.8 µM | 2.57 | 8.26 |
| CCN(CC)c1ccc(/C=C/C2=[N+](C)c3ccccc3C2(C)C)cc1 | 0.183 | > 100 µM | 0.235 | 14 µM | 0.181 | 22.1 µM | 0.766 | > 35.2 µM | 0.148 | > 40.5 µM | 0.29 | 3.29 µM | 1.01 | 23.7 µM | > 20.9 | > 100 | 0.36 | 19.4 µM | 3.26 | 18.1 |
| CCOC(=O)/C(=C/c1c(-c2ccccc2)[nH]c2ccccc12)C(=O)c1ccc(Cl)cc1 | 2.73 | > 100 µM | 3.73 | > 100 µM | 2.76 | > 100 µM | 1.93 | 15 µM | 3.96 | > 100 µM | 3.09 | > 100 µM | > 100 | > 100 µM | 3.14 | 6.42 | 4.53 | > 100 µM | 3.86 | > 100 |
| CC/C(=C(/CC)c1ccc(OP(=O)([O-])[O-])cc1)c1ccc(OP(=O)([O-])[O-])cc1.N.N.N.N.[Pt+4].[Pt+4] | 0.898 | > 100 µM | 7.77 | 41.9 µM | 5.66 | > 100 µM | 3.43 | 8.93 µM | 16.9 | 90.3 µM | 2.13 | 6.02 µM | 6.98 | 77.8 µM | 1.28 | > 100 | 5.19 | 62.2 µM | 4.3 | 25.4 |
| COC(=O)C1(C)CCc2c(ccc3ccccc23)C1=O (stereo not drawn) | – | > 100 µM | – | > 100 µM | – | > 100 µM | – | > 100 µM | – | > 100 µM | – | 69 µM | – | > 100 µM | – | > 100 | – | > 100 µM | – | > 100 |
| COc1ccc(C(NCCNC(c2ccc(OC)c(OC)c2)c2cc3c(cc2O)OCO3)c2cc3c(cc2O)OCO3)cc1OC (stereo not drawn) | – | 0.86 µM | – | 18.7 µM | – | 6.05 µM | – | 17.1 µM | – | 9.69 µM | – | 15.4 µM | – | 11.6 µM | – | 3.43 | – | 3.86 µM | – | 8.27 |
| COc1ccc(Nc2nc3c(N)cc(C(F)(F)F)cc3nc2-c2ccccc2)cc1 | – | > 100 µM | – | > 100 µM | – | > 100 µM | – | > 100 µM | – | – | – | > 100 µM | – | > 100 µM | – | > 100 | – | > 100 µM | – | > 100 |
| Nc1nccc(C#Cc2cncnc2Nc2ccc(OCc3cccc(F)c3)c(Cl)c2)n1 | 1.33 | > 19.2 µM | 4.51 | 9.85 µM | 3.48 | 7.43 µM | 3.73 | 8.95 µM | 4.57 | 9.05 µM | 5.26 | 13.1 µM | 5.45 | 11.3 µM | 3.18 | > 25 | 3 | 7.66 µM | 4.34 | 10.1 |
| COc1cc2c(cc1OCCCN1CCN(CCCOc3cc4c(cc3OC)C(=O)C3CCC[C@H]3C=N4)CC1)N=C[C@@H]1CCCC1C2=O (stereo partly drawn) | 0.478 | > 74.3 µM | 34.2 | > 100 µM | 12.1 | > 100 µM | 0.597 | > 61.4 µM | 23.3 | > 68.8 µM | 2.83 | 21.5 µM | 4.84 | > 27.2 µM | 0.367 | > 100 | 1.19 | > 35 µM | 17.1 | > 51.3 |
| Nc1ccc(C(=O)O)c2[nH]c3ccccc3c(=O)c12 | – | > 100 µM | – | – | – | > 100 µM | – | > 100 µM | – | > 100 µM | – | > 100 µM | – | > 100 µM | – | > 100 | – | > 100 µM | – | > 100 |
| O=C1/C(=C\c2ccccc2)CN(C(=O)c2ccccc2F)C/C1=C\c1ccccc1 | 1.52 | 5.62 µM | – | – | 0.321 | 1.03 µM | 3.18 | 14.2 µM | 1.48 | 4.17 µM | 2.24 | 4.75 µM | 2.16 | 5.38 µM | 0.407 | 3.45 | 1.52 | 3.48 µM | 1.53 | 3.24 |
